Measurements as given in ChEMBL document CHEMBL4020826 (J Med Chem, 2018).

Assays:
CYP2C9 = CYP2C9 (Homo sapiens, UniProt P11712); experiment: Inhibition of human CYP2C9 at 10 uM; assay type: ADME
[1] = Bioavailability in Sprague-Dawley rat at 3 mg/kg, sc measured over 8 hrs by LC-MS/MS analysis; assay type: ADME, organism-based; conditions: in vivo
[2] = Drug level in Sprague-Dawley rat CSF at 3 mg/kg, sc administered as single dose measured after 1 hr post dose by LC-MS/MS analysis; assay type: ADME, organism-based, Cerebrospinal fluid; conditions: read-out: Drug uptake
[3] = Aqueous solubility of the compound at pH 7.4; assay type: physicochemical; conditions: buffer
[4] = Plasma concentration in Sprague-Dawley rat at 1 mg/kg, sc administered as single dose measured after 1 hr post dose by LC-MS/MS analysis; assay type: ADME, organism-based
[5] = Plasma concentration in Sprague-Dawley rat at 5 mg/kg/day, sc administered via infusion measured after 6 hrs post dose by LC-MS/MS analysis; assay type: ADME, organism-based
[6] = Plasma concentration in Sprague-Dawley rat at 0.5 mg/kg/day, sc administered via infusion measured after 72 hrs post dose by LC-MS/MS analysis; assay type: ADME, organism-based
[7] = Plasma concentration in Sprague-Dawley rat at 0.5 mg/kg/day, sc administered via infusion measured after 12 hrs post dose by LC-MS/MS analysis; assay type: ADME, organism-based
[8] = Drug level in Sprague-Dawley rat CSF at 0.3 mg/kg, sc administered as single dose measured after 1 hr post dose by LC-MS/MS analysis; assay type: ADME, organism-based, Cerebrospinal fluid; conditions: read-out: Drug uptake
[9] = Plasma concentration in Sprague-Dawley rat at 1.5 mg/kg/day, sc administered via infusion measured after 6 hrs post dose by LC-MS/MS analysis; assay type: ADME, organism-based
[10] = Plasma concentration in Sprague-Dawley rat at 5 mg/kg/day, sc administered via infusion measured after 12 hrs post dose by LC-MS/MS analysis; assay type: ADME, organism-based
[11] = Drug metabolism in dog liver microsomes at 4 uM; assay type: ADME, Canis lupus familiaris, microsome; conditions: read-out: Drug metabolism
[12] = biological target: Metabotropic glutamate receptor 2 (Homo sapiens, UniProt Q14416); experiment: Displacement of [3H]-LY459477 from recombinant human mGlu2 receptor expressed in HEK cell membranes after 90 mins by liquid scintillation counting
Sequence of Metabotropic glutamate receptor 2 (Q14416 whole entry): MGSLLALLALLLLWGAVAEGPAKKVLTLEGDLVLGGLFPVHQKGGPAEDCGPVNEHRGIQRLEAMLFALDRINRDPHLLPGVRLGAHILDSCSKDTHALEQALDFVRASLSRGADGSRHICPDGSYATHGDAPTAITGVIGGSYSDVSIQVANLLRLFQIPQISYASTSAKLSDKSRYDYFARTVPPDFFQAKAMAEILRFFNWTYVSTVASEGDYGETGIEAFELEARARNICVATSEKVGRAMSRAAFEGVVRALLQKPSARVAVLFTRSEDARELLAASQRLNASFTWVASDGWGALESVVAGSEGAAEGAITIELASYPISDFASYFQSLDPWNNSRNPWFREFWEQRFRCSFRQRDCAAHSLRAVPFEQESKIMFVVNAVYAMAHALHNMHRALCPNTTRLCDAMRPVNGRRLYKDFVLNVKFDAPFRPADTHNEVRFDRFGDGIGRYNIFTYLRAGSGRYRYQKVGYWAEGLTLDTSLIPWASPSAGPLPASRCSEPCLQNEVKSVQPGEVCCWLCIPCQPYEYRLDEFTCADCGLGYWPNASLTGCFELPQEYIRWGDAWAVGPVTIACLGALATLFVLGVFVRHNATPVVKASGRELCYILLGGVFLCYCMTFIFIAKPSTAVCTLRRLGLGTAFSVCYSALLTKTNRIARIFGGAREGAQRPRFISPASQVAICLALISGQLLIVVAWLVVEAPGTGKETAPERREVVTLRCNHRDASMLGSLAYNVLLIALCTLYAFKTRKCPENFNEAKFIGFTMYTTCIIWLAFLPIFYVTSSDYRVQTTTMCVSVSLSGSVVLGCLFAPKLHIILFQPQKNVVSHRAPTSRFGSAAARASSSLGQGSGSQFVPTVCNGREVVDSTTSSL

[13] = AUC in Sprague-Dawley rat at 1 mg/kg, iv measured over 8 hrs by LC-MS/MS analysis; assay type: ADME, organism-based; design: time < 8 hr, dose 1 mg/kg, route intravenous; conditions: in vivo
[14] = Plasma concentration in Sprague-Dawley rat at 15 mg/kg/day, sc administered via infusion measured after 72 hrs post dose by LC-MS/MS analysis; assay type: ADME, organism-based
[15] = Tmax in Sprague-Dawley rat at 3 mg/kg, sc measured over 8 hrs by LC-MS/MS analysis; assay type: ADME, organism-based; conditions: in vivo
[16] = biological target: Metabotropic glutamate receptor 4 (Homo sapiens, UniProt Q14833); experiment: Antagonist activity at recombinant human mGlu4 receptor expressed in hamster AV12 cells co-expressing rat EAAT1/Galpha15 assessed as inhibition of glutamate induced increase in Ca2+ flux after 2.5 mins by Fluo-3 AM dye-based FLIPR assay; assay type: functional, cell-based
[17] = Drug level in Sprague-Dawley rat CSF at 15 mg/kg/day, sc administered via infusion measured after 72 hrs post dose by LC-MS/MS analysis; assay type: ADME, organism-based, Cerebrospinal fluid; conditions: read-out: Drug uptake
[18] = Plasma concentration in Sprague-Dawley rat at 3 mg/kg, sc administered as single dose measured after 1 hr post dose by LC-MS/MS analysis; assay type: ADME, organism-based
[19] = biological target: T1, Metabotropic glutamate receptor 1 (Homo sapiens, UniProt Q13255); experiment: Antagonist activity at recombinant human mGlu1 receptor expressed in hamster AV12 cells co-expressing rat EAAT1/Galpha15 assessed as inhibition of glutamate induced increase in Ca2+ flux after 2.5 mins by Fluo-3 AM dye-based FLIPR assay; assay type: functional, cell-based
T1 sequence (Q13255 whole entry, the tested form may be a part): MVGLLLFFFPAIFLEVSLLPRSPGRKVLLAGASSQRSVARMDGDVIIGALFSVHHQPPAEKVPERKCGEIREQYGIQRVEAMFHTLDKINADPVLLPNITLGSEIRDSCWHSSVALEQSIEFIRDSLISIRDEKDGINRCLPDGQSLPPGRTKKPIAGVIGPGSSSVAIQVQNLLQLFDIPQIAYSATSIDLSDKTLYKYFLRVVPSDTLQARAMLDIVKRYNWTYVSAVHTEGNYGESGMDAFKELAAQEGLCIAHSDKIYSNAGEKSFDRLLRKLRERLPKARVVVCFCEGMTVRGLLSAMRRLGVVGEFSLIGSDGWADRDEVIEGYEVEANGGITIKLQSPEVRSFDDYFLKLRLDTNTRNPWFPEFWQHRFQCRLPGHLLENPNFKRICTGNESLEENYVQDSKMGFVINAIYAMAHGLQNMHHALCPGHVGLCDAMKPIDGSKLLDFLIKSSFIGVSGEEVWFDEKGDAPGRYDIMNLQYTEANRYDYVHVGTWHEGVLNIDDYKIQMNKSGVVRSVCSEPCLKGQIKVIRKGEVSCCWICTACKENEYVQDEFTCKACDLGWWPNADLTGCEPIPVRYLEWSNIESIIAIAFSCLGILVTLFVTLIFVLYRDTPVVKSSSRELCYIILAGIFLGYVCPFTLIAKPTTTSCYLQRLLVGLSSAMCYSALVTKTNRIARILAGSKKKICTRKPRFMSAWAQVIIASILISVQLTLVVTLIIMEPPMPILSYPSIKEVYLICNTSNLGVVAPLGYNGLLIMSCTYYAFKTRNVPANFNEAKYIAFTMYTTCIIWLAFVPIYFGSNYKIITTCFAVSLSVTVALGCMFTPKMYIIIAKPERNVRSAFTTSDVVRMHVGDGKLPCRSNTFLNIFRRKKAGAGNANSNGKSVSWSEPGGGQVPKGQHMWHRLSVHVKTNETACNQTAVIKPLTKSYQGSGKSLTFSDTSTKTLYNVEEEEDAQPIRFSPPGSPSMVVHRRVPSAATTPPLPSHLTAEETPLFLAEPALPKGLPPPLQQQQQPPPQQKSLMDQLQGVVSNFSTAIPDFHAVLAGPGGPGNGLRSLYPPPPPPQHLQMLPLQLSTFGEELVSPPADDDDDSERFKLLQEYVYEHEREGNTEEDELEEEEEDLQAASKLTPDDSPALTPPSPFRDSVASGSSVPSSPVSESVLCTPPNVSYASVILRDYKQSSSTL

[20] = Drug level in Sprague-Dawley rat CSF at 0.5 mg/kg/day, sc administered via infusion measured after 72 hrs post dose by LC-MS/MS analysis; assay type: ADME, organism-based, Cerebrospinal fluid; conditions: read-out: Drug uptake
[21] = Plasma concentration in Sprague-Dawley rat at 0.5 mg/kg/day, sc administered via infusion measured after 24 hrs post dose by LC-MS/MS analysis; assay type: ADME, organism-based
[22] = biological target: Group II metabotropic glutamate receptor (mGlu2/mGlu3) (Rattus norvegicus, UniProt P31421+P31422); experiment: Displacement of [3H]-LY459477 from mGlu2/3 receptor in Sprague-Dawley rat forebrain primary cortical membranes after 90 mins by liquid scintillation counting
[23] = Plasma concentration in Sprague-Dawley rat at 1.5 mg/kg/day, sc administered via infusion measured after 12 hrs post dose by LC-MS/MS analysis; assay type: ADME, organism-based
[24] = biological target: T1, Metabotropic glutamate receptor 1; experiment: Agonist activity at recombinant human mGlu1 receptor expressed in hamster AV12 cells co-expressing rat EAAT1/Galpha15 assessed as induction of increase in Ca2+ flux after 2.5 mins by Fluo-3 AM dye-based FLIPR assay; assay type: functional, cell-based
[25] = biological target: T2, Metabotropic glutamate receptor 7 (Homo sapiens, UniProt Q14831); experiment: Agonist activity at recombinant human mGlu7 receptor expressed in hamster AV12 cells co-expressing rat EAAT1/Galpha15 assessed as induction of increase in Ca2+ flux after 2.5 mins by Fluo-3 AM dye-based FLIPR assay; assay type: functional, cell-based
T2 sequence (Q14831 whole entry): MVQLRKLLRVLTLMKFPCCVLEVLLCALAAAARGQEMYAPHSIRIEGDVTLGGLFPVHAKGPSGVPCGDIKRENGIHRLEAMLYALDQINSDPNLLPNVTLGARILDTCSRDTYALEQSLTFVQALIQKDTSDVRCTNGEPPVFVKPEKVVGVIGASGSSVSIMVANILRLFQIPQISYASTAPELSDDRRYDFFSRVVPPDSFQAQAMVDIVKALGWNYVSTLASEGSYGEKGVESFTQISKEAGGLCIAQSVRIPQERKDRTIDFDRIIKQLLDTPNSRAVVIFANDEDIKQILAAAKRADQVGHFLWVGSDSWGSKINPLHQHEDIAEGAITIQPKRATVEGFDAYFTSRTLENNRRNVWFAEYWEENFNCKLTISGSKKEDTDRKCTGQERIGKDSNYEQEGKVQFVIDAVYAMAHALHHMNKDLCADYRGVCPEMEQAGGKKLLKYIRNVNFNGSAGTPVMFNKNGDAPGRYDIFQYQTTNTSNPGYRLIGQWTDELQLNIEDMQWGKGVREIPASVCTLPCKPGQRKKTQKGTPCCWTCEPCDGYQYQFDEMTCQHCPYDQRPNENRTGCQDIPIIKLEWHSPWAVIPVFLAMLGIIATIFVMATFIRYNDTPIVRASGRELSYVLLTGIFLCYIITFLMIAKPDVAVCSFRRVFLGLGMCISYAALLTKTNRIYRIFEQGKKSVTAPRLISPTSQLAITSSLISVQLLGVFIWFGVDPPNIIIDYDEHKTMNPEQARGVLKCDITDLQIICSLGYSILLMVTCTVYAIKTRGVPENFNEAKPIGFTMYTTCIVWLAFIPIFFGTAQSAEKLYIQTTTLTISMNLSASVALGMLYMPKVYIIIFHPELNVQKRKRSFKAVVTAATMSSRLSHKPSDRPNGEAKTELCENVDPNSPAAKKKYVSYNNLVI

[26] = biological target: Voltage-gated inwardly rectifying potassium channel KCNH2 (Homo sapiens, UniProt Q12809); experiment: Displacement of [3H]-dofetilide from human ERG
Sequence of Voltage-gated inwardly rectifying potassium channel KCNH2 (Q12809 whole entry): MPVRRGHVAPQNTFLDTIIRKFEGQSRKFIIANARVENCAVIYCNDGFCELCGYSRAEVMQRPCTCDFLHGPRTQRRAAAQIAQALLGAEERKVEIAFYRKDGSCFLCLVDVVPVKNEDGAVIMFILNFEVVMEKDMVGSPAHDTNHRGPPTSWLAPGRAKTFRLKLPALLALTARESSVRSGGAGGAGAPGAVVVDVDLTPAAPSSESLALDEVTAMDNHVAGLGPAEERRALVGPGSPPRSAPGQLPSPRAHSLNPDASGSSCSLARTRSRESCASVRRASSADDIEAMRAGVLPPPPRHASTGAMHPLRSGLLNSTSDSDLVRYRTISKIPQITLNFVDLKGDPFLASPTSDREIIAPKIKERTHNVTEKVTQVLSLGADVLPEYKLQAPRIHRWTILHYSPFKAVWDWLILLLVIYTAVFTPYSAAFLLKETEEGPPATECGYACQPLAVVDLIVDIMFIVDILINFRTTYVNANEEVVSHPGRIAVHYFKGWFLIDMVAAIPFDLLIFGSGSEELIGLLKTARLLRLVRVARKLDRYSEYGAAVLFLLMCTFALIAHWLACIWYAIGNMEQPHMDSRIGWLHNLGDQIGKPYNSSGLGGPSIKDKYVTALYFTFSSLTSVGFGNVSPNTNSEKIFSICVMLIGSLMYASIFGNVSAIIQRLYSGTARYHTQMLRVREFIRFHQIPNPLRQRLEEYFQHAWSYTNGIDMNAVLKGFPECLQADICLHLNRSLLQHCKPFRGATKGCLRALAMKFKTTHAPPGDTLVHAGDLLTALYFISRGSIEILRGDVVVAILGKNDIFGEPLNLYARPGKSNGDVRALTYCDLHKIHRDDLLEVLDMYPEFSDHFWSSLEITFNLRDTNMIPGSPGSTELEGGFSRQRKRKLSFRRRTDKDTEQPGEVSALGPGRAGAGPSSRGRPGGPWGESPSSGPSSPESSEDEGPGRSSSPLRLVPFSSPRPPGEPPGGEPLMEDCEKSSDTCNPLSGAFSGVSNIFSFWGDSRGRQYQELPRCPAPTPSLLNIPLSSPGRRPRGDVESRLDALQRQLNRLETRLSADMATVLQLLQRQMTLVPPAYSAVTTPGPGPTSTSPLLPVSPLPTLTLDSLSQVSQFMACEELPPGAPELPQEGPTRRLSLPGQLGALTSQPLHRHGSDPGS

[27] = Plasma concentration in Sprague-Dawley rat at 0.3 mg/kg, sc administered as single dose measured after 1 hr post dose by LC-MS/MS analysis; assay type: ADME, organism-based
Rattus norvegicus = experiment: Toxicity in Sprague-Dawley rat assessed as reduction in spontaneous locomotive activity at 30 mg/kg, sc after 90 mins; assay type: organism-based; design: scale not given: the % may be the effect or the level left; conditions: in vivo, 1.5 h
[28] = biological target: Metabotropic glutamate receptor 5 (Homo sapiens, UniProt P41594); experiment: Agonist activity at recombinant human mGlu5 receptor expressed in hamster AV12 cells co-expressing rat EAAT1/Galpha15 assessed as induction of increase in Ca2+ flux after 2.5 mins by Fluo-3 AM dye-based FLIPR assay; assay type: functional, cell-based
[29] = biological target: T2, Metabotropic glutamate receptor 7; experiment: Antagonist activity at recombinant human mGlu7 receptor expressed in hamster AV12 cells co-expressing rat EAAT1/Galpha15 assessed as inhibition of glutamate induced increase in Ca2+ flux after 2.5 mins by Fluo-3 AM dye-based FLIPR assay; assay type: functional, cell-based
[30] = Volume of distribution at steady state in Sprague-Dawley rat at 1 mg/kg, iv measured over 8 hrs by LC-MS/MS analysis; assay type: ADME, organism-based; conditions: in vivo, read-out: Vdss
[31] = Half life in Sprague-Dawley rat at 3 mg/kg, sc measured over 8 hrs by LC-MS/MS analysis; assay type: ADME, organism-based; conditions: in vivo
[32] = Plasma concentration in Sprague-Dawley rat at 15 mg/kg/day, sc administered via infusion measured after 24 hrs post dose by LC-MS/MS analysis; assay type: ADME, organism-based
[33] = Drug level in Sprague-Dawley rat CSF at 5 mg/kg/day, sc administered via infusion measured after 72 hrs post dose by LC-MS/MS analysis; assay type: ADME, organism-based, Cerebrospinal fluid; conditions: read-out: Drug uptake
[34] = Fraction unbound in rat plasma; assay type: ADME, cell-free
[35] = Drug metabolism in mouse liver microsomes at 4 uM; assay type: ADME, microsome; conditions: read-out: Drug metabolism

Sequence of CYP2C9 (P11712 whole entry): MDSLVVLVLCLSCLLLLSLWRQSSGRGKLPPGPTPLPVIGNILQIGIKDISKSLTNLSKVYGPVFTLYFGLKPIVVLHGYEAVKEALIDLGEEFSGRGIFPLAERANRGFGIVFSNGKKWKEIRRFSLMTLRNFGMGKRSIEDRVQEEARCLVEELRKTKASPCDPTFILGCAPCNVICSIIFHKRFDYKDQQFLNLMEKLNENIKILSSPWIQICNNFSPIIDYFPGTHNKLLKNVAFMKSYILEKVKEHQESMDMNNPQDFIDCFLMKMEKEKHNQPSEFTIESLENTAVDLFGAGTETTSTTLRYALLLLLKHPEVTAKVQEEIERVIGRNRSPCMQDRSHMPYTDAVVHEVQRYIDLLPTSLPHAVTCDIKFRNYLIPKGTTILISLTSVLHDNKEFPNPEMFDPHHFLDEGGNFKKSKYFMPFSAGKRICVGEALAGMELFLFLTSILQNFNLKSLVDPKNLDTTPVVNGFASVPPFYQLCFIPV

`COc1cccc(C(=O)N[C@H]2C[C@@](N)(C(=O)O)[C@@H]3[C@@H](C(=O)O)[C@@H]32)c1` showed an inhibition at 10 µM (CYP2C9) of 3.5%, a bioavailability [1] of 121% and a concentration at 1 h [2] of 73.6 nM. It also gave a solubility [3] of over 100 µM, a concentration at 1 h [4] of 1510 to 1580 nM and a concentration at 6 h [5] of 1280 nM. For the same compound, the concentration at 72 h [6] was 91.2 nM, the concentration at 12 h [7] was 143 nM and the concentration at 1 h [8] was 6.91 nM. It also gave a concentration at 6 h [9] of 427 nM, a concentration at 12 h [10] of 1260 nM and a metabolised at 4 µM [11] of 28.9%. The Ki [12] was 0.412 µM, the AUC at 8 h [13] was 2.75 µM·h and the concentration at 72 h [14] was 3210 nM. The Tmax [15] was 0.44 h, the IC50 [16] was over 12.5 µM and the concentration at 72 h [17] was 86.7 nM. The concentration at 1 h [18] was 7180 nM, the IC50 [19] was over 12.5 µM and the concentration at 72 h [20] was under 7.5 nM. It also gave a concentration at 24 h [21] of 124 nM, a Ki [22] of 0.106 µM and a concentration at 12 h [23] of 389 nM. The EC50 [24] was over 25 µM, the EC50 [25] was over 25 µM and the “inhibition (INH)” value [26] was “Not Active”. For the same compound, the concentration at 1 h [27] was 771 nM, the Activity (Rattus norvegicus) was 36% and the EC50 [28] was over 25 µM. For the same compound, the IC50 [29] was over 12.5 µM, the Vd [30] was 1.17 L/kg and the half-life [31] was 2.9 h. It also gave a concentration at 24 h [32] of 3170 nM, a concentration at 72 h [33] of 25.2 nM and a fraction unbound [34] of 1. The metabolised at 4 µM [35] was 11.5%.
